Each molecule was assayed against T1, PI3Kβ (recombinant truncated form (ΔN1-108) of the human p110β subunit of PI3K) (Homo sapiens, UniProt P42338) (assay: Solid-phase lipid kinase assay of PI3Kβ). Conditions: 7.5 ng protein/well, final 10 μM ATP, 2 h at rt.
T1 construct: His6 (N); made in house; host or cells: Spodoptera frugiperda Sf9 insect cells
T1 sequence (P42338 109-1070): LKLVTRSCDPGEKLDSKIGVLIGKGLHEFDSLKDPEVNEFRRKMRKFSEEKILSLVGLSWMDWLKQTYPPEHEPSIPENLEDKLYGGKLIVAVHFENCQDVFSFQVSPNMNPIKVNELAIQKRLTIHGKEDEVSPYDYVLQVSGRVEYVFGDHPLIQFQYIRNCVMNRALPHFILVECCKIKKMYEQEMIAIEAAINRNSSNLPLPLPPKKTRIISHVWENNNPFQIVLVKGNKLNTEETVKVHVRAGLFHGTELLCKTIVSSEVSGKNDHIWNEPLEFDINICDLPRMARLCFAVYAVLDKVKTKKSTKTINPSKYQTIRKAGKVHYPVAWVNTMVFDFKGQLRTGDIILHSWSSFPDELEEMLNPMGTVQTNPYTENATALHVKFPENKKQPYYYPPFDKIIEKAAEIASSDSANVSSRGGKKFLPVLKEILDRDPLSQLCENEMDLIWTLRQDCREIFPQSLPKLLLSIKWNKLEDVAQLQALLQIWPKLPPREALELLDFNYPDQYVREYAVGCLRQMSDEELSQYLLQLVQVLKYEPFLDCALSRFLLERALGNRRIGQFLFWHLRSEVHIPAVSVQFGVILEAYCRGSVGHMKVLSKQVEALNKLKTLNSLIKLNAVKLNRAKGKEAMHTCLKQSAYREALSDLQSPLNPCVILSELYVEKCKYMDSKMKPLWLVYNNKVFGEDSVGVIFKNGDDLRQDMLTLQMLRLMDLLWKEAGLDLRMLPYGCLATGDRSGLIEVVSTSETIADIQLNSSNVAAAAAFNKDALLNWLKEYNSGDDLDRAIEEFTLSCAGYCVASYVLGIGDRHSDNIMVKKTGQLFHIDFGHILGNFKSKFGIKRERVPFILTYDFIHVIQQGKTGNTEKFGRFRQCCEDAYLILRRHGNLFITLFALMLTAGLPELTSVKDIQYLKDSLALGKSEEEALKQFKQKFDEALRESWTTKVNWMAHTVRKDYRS
Assay type: biochemical
Procedure: To assess inhibition of PI3Kα by compounds, the Maxisorp™ plates were coated with 50 μL/well of a solution containing 50 μg/ml PtdIns and 50 μg/ml PtdSer dissolved in chloroform:ethanol (3:7). The plates were subsequently air-dried by incubation for at least 2 h in a fume hood. The reaction was set up by mixing 25 μL/well of assay buffer 2×(100 mM MOPSO/NaOH, 0.2 M NaCl, pH 7.0, 8 mM MgCl2, 2 mg/mL BSA (fatty acid-free)), and 7.5 ng/well PI3Kα in the lipid pre-coated plate. Test compounds at different concentrations (0.0, 0.003, 0.01 0.03, 0.1, 0.3, 1.0, 3.0 and 10 μM) were added in 2% DMSO. The reaction was initiated by adding 20 μL/well of ATP mix (final 10 μM ATP; 0.05 μCi/well [γ^33P]ATP). After incubation at rt for 2 h, the reaction was terminated by adding 50 μl/well stop solution (50 mM EDTA, pH 8.0). The plate was then washed twice with Tris-buffered saline (TBS, pH 7.4). MicroScint PS™ (PACKARD) scintillation mix was added at 100 μL/well, and radioactivity was counted using a TopCount™ (PACKARD) scintillation counter.
The inhibition percent at each concentration of compound was calculated, and IC50 values were determined from the inhibition of curve.
A recombinant truncated form (ΔN1-108) of the human p110β subunit of PI3K with an N-terminal His6-Tag was expressed in S. frugiperda 9 insect cells. Recombinant human PI3Kγ (full length human PI3K p110γ fused with a His6-tag at the C-terminus expressed in S. frugiperda 9 insect cells) was obtained from ALEXIS BIOCHEMICALS (#201-055-0010; San Diego, Calif.).
Kinase assays using recombinant truncated p110β or the full length p110γ were performed in a similar manner as described in the determination of IC50 values of compounds in the kinase assay of PI3Kα except that these isoforms were assayed using 7.5 ng and 25.0 ng of protein/well, respectively.
Work on `Nc1ccc(C(=O)NC2=Nc3cc(OCCCS(=O)(=O)N4CCOCC4)ccc3C3=NCCN23)cn1` [Example 30, 6-amino-N-{8-[3-(morpholin-4-ylsulfonyl)propoxy]-2,3-dihydroimidazo[1,2-c]quinazolin-5-yl}nicotinamide] yielded an IC50 of 100 to 3000 nM.
For `COc1c(OCCOCCNS(C)(=O)=O)ccc2c1N=C(NC(=O)c1cccnc1)N1CCN=C21` [Example 31, N-[7-methoxy-8-(2-{2-[(methylsulfonyl)amino]ethoxy}ethoxy)-2,3-dihydroimidazo[1,2-c]quinazolin-5-yl]nicotinamide], the IC50 was less than 100 nM.
Work on `CCCS(=O)(=O)NCCOCCOc1ccc2c(c1OC)N=C(NC(=O)c1cccnc1)N1CCN=C21` [Example 32] yielded an IC50 of less than 100 nM.
For `COc1c(OCCOCCNS(=O)(=O)c2ccccc2)ccc2c1N=C(NC(=O)c1cccnc1)N1CCN=C21` [Example 33, N-[7-methoxy-8-(2-{2-[(phenylsulfonyl)amino]ethoxy}ethoxy)-2,3-dihydroimidazo[1,2-c]quinazolin-5-yl]nicotinamide], the IC50 was less than 100 nM.
`COc1c(OCCOCCNS(=O)(=O)c2ccc(C)cc2)ccc2c1N=C(NC(=O)c1cccnc1)N1CCN=C21` [Example 34, N-{7-methoxy-8-[2-(2-{[(4-methylphenyl)sulfonyl]amino}ethoxy)ethoxy]-2,3-dihydroimidazo[1,2-c]quinazolin-5-yl}nicotinamide] was tested, and the IC50 was less than 100 nM.
Work on `CCS(=O)(=O)NCCCOc1ccc2c(c1OC)N=C(NC(=O)c1cccnc1)N1CCN=C21` [Example 35, N-(8-[3-[(ethylsulfonyl)amino]propoxy]-7-methoxy-2,3-dihydroimidazo[1,2-c]quinazolin-5-yl)nicotinamide] yielded an IC50 of less than 100 nM.
For `CS(=O)(=O)c1ccc(COc2c(OCCCN3CCOCC3)ccc3c2N=C(NC(=O)c2cccnc2)N2CCN=C32)cc1` [Example 36, N-[7-{[4-(methylsulfonyl)benzyl]oxy}-8-(3-morpholin-4-ylpropoxy)-2,3-dihydroimidazo[1,2-c]quinazolin-5-yl]nicotinamide], the IC50 was less than 100 nM.
With `CS(=O)(=O)Oc1c(OCCCN2CCOCC2)ccc2c1N=C(NC(=O)c1cccnc1)N1CCN=C21` [Example 37, 8-(3-morpholin-4-ylpropoxy)-5-[(pyridin-3-ylcarbonyl)amino]-2,3-dihydroimidazo[1,2-c]quinazolin-7-yl methanesulfonate] the IC50 was less than 100 nM.
